Tests used:
MIA-PaCa-2 = assay: Cell viability (MTT) assay, 24-h IC50, MIA-PaCa-2; type: cell-based, human; settings: Homo sapiens, MIA PaCa-2, 24 h, read-out: 24-h IC50
HT29 = assay: Cell viability (MTT) assay, 24-h IC50, HT29; type: cell-based, human; settings: Homo sapiens, HT-29, 24 h, read-out: 24-h IC50
colon cancer cells = assay: Apoptosis (annexin V/PI), DFMO and phospho-sulindac I, 48 h; type: cell-based, human; settings: 48 h of incubation; concentrations below IC50s
Experimental: (§1) A—Left panel: Cell viability was determined in HT-29 (full bars) and SW-480 (empty bars) cells after 48 h of incubation with 5 mM DFMO, 40 μM phospho-sulindac (P-S) or simultaneous combination of DFMO and P-S. Data are expressed as percentage of control cells (cells incubated only with DMSO). […] Right panel: In this isobologram the additivity line connects the IC50 value of each compound used alone. A and B represent two different dose pairs of each compound (their respective concentrations are shown in parentheses). The location of both A and B below the additivity line signifies synergy. […] DNA content was determined from propidium iodide (PI) fluorescence. C—Apoptosis and necrosis were determined by combined staining with annexin V and PI and determining fluorescence intensity. The percentages of apoptotic cells were determined using the dual staining with annexin V and propidium iodide and are indicated in each quadrant: left bottom quadrant, viable cells (annexin V-negative/PI-negative); right bottom quadrant, early apoptotic cells (annexin V-positive/PI-negative); right upper quadrant, late apoptotic cells (annexin V-positive/PI-positive); left upper quadrant, necrotic cells (annexin V-negative, PI-positive). […]

[1] = system: SW480 and HT-29 human colon cancer cells; assay: Cell kinetics of colon cancer cells treated with phospho-sulindac I; type: cell-based
Experimental: Cell proliferation assay: To determine cell proliferation, we measured the incorporation of 5-bromo-2′-deoxyuridine (BrdU) into newly synthesized cellular DNA, following the manufacture's instructions (BD Biosciences, San Jose, Calif.).
(§2) Annexin V and propidium iodide (PI) staining: Cells were seeded at a density of 1×10^5 cells/well and treated for 24 h with various concentrations of each compound or equivalent volumes of DMSO. Briefly, after incubation with the test compounds, cells were trypsinized and stained with Annexin V-FITC (Invitrogen) and PI (0.5 μg/ml). Following incubation at room temperature for 15 min in the dark, annexin V-FITC and PI fluorescence intensities were analyzed by FACScaliber (BD Bioscience). Annexin V (+)/PI (−) cells are in early apoptosis, annexin V (+)/PI (+) cells are in late apoptosis (secondary necrosis), and annexin V (−)/ PI (+) cells are necrotic cells.
Determination of cell cycle phase distribution (PI incorporation assay): Cells were seeded in culture plates and treated for 24 h with various concentrations of each compound or equivalent volumes of DMSO. After treatment, cells were trypsinized and fixed in 70% ethanol for 1 h on ice, stained with PI (50 μg/ml) and RNase A (4 U/ml) for 30 min and subjected to flow cytometric analysis for the determination of their distribution in the cell cycle phases.

SW480 = assay: DFMO / phospho-sulindac I synergy, cell growth at 48 h, SW480; type: cell-based, human; settings: SW480, 48 h; DFMO 5 mM, phospho-sulindac I 40 μM
Experimental: as §1

MCF-7 = assay: Cell viability (MTT) assay, 24-h IC50, MCF-7; type: cell-based, human; settings: Homo sapiens, MCF7, 24 h, read-out: 24-h IC50
[2] = system: MDA-MB 231 human breast cancer cells; assay: Annexin V and propidium iodide staining in MDA-MB231; type: cell-based; settings: MDA-MB231, compound at its IC50, 24 h
Experimental: as §2
As summarized in Table 2 below, in MDA-MB231 cells, all six compounds, each used at its IC50 concentration, a) inhibited cell proliferation between 6% and 50% compared to controls; b) induced both early and late apoptosis, as well as necrosis; and c) inhibited the G1 to S cell cycle phase transition. In this Table, the values for proliferation are the percentage of the corresponding control values. Those for apoptosis and necrosis refer to the percentage of cells in each category with respect to the entire cell population, and are to be compared to the control (vehicle only-treated) cells (uppermost row).

BxPC-3 = assay: Cell viability (MTT) assay, 24-h IC50, BxPC-3; settings: Homo sapiens, BXPC-3, 24 h, read-out: 24-h IC50
Experimental: Cells were incubated at 37° C. in 5% CO2. Cells were seeded at 5.5×10^4 cells/cm^2, allowed to attach overnight, and the following morning cells were treated with each of the test compounds.
Cell viability assay: We used an assay based on the reduction of 3-(4,5-dimethylthiazol-2-yl)-2,5-diphenyltetrazolium bromide dye (MTT), which was determined according to the manufacture's protocol (Promega, Madison, Wis., USA).

Salmonella typhimurium = assay: Ames mutagenicity assay (reverse mutations); type: cell-based; settings: two strains, presence and absence of S9 activation
Experimental: We assessed the safety of phospho-sulindac I by examining its genotoxicity by the Ames test and its gastrointestinal and other toxicity by performing a toxicological study in mice.
The mutagenic potential of phospho-sulindac I was evaluated by measuring its ability to induce reverse mutations at selected loci of two strains of Salmonella typhimurium in the presence and absence of S9 activation.

[3] = 24 h at its 24-h IC50, vs untreated controls

## CCOP(=O)(OCC)OCCCCOC(=O)CC1=C(C)/C(=C/c2ccc([S+](C)[O-])cc2)c2ccc(F)cc21 (centres unmarked) [Phospho-sulindac I]
MIA-PaCa-2
  IC50: 88 µM
HT29
  IC50: 65 µM
Colon cancer cells
  percentage of apoptotic cells: 16.5%
[1]; 24 h at its 24-h IC50
  effect on G1 to S cell cycle phase transition: blocked the transition form the G1 to the S cell cycle phase
[1]; [3]
  induced apoptosis (early and late subtypes combined): 201%
  induced necrosis: 1350%
  inhibited cell proliferation: 72%
[1]; 24 h at its 24-h IC50, controls 0.2%
  necrosis in treated cells: 2.9%
[1]; 24 h at its 24-h IC50, controls 6.6%
  apoptosis (early and late combined) in treated cells: 20%
[1]; 24 h at its 24-h IC50, controls 43%
  cell proliferation in treated cells: 12%
SW480
  reduction in cell number: 45%
MCF-7
  IC50: 62 µM
[2]; % of entire cell population (control 0.6)
  Necrosis (%): 1.1%
[2]; % of entire cell population (control 1.4)
  Early apoptosis (%): 1.7%
[2]; % of entire cell population (control 2.0)
  Late apoptosis (%): 4.7%
BxPC-3
  IC50: 62 µM
Salmonella typhimurium
  genotoxicity (mutagenic potential): negative for genotoxicity

From patent US8236820B2, “Anti-inflammatory compounds and uses thereof” (priority 2007, dated 2012)
